Test results published in patent publication US20040006236A1, “Diaminopropionic acid derivatives” (priority 1999, published 2004).
pIC50: −log10 of the molar value. Where two headings read alike, the source gives them in different places.

Assays:
[1] = biological target: T1, ICAM-1 binding to immobilized Mac-1 (Homo sapiens, UniProt P05107+P11215); test: Mac-1/ICAM-1 screening assay (solid-phase ELISA)
T1 construct: made in house; host or cells: transfected 293 cells (Mac-1)
Method: (b) Mac-1/ICAM-1 screening test: Mac-1/ICAM-1 antagonist activity, defined as the ability to compete with ICAM-1 binding to immobilized Mac-1, was quantitated by a solid-phase ELISA.
(§1) Membrane-bound Mac-1 derived from transfected 293 cells was coated onto 96-well microtiter plates (50 μL/well, 3 μg/mL Mac-1 in 20 mM Hepes, pH 7.2/0.14 M NaCl/1 mM MnCl2) overnight at 4° C. The plates were blocked with 100 μL/well of 0.5% BSA in 20 mM Hepes, pH 7.2/0.14 M NaCl/1 mM MnCl2 at 37° C. for 1 h and washed 3 times (120 μL each) with Binding Buffer (20 mM Hepes, pH 7.2/0.14 M NaCl/1 mM MnCl2/0.05% Tween 20). Test compounds were dissolved in 100% DMSO and diluted 1:50 in Binding Buffer plus 10% DMSO. A series of 1:4 dilutions were performed for each compound (concentration range, 0.12 nM-20 μM). Each dilution (25 μL/well) was added to the plates, followed by 25 μL/well of 5 dICAM-Ig (40 μg/mL in Binding Buffer). The plates were shaken vigorously for 1 min (room temperature), followed by gentle agitation for 2 h (37° C.), and washed with Binding Buffer (3 times, 120 μL each). HRP-conjugated goat anti-human IgG(Fc-specific) antibody (0.125 μg/mL in Binding Buffer plus 0.05% BSA) was added to each well (50 μL/well), followed by incubation for 1 h at 37° C. The plates were then washed 3 times with Binding Buffer (120 μL each). TMB solution (100 μL/well) was added to each well for color development for 10 min. The reaction was stopped with 1 M H3PO4 (100 μL/well) and the plates were read at 450 nm. The inhibitory activities of test compounds were determined by the IC50s.
as §1, with “Mac-1/ICAM-1 antagonist activity, defined as the ability to compete with ICAM-1 binding to immobilized Mac-1, was quantitated by a solid-phase ELISA. Membrane-bound” for “Membrane-bound”, “5dICAM-Ig” for “5 dICAM-Ig”, “nm.” for “nm. The inhibitory activities of test compounds were determined by the IC50s.”

[2] = biological target: T2, LFA-1 binding to immobilized ICAM-1 (Homo sapiens, UniProt P05107+P20701); test: LFA-1/ICAM-1 protein-protein assay (solid-phase ELISA)
T2 construct: made in house; host or cells: transfected 293 cells (LFA-1)
T2 sequence (P20701 26-1170): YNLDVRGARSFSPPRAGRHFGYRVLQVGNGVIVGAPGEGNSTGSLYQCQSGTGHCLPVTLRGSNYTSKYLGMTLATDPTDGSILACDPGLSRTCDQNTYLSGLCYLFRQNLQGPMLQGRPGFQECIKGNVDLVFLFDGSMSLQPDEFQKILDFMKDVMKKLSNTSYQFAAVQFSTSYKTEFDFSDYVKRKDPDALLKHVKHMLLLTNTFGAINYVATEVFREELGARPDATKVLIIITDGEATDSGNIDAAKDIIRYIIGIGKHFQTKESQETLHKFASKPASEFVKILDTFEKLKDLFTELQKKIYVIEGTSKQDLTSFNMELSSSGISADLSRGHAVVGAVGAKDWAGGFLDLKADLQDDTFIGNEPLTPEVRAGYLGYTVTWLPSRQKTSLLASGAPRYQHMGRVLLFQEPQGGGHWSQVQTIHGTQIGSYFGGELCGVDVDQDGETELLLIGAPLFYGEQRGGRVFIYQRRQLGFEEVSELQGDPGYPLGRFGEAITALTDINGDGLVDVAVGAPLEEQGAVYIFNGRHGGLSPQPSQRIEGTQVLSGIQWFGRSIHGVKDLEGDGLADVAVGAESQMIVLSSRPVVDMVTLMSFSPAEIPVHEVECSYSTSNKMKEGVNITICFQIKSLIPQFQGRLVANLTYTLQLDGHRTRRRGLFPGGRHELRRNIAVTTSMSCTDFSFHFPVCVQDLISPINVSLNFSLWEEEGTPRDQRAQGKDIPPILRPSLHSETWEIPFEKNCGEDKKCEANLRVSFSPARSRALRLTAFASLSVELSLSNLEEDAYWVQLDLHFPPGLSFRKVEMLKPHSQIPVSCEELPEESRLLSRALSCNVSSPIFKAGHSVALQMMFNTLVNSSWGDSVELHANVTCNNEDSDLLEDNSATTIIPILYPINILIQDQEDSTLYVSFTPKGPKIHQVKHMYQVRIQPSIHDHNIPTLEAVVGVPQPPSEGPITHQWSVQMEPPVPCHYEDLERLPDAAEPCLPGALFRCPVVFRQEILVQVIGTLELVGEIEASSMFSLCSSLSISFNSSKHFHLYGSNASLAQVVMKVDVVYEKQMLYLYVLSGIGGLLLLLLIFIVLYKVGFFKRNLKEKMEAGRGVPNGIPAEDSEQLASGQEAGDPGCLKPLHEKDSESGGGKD
T2 sequence (P05107 23-769): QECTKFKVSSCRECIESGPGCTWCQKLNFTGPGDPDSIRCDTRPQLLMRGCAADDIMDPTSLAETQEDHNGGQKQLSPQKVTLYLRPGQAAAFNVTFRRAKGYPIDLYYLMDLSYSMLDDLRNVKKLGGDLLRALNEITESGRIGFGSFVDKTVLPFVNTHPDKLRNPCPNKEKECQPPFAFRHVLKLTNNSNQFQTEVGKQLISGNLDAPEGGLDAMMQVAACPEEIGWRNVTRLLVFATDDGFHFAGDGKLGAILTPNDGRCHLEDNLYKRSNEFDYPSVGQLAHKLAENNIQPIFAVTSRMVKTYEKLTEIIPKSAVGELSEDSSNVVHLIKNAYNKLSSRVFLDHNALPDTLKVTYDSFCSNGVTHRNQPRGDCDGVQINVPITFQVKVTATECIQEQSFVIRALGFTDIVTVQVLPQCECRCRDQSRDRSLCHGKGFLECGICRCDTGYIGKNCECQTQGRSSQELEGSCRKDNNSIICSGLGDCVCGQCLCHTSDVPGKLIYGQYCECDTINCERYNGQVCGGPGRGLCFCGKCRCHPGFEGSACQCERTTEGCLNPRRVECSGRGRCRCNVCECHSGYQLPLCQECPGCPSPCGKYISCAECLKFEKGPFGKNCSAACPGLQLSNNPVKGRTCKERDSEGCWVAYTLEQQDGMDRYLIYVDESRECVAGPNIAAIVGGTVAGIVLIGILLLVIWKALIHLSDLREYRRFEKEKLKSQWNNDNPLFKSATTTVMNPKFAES
Method: (a) LFA-1/ICAM-1 screening test: LFA-1/ICAM-1 antagonist activity, defined as the ability of compounds of the invention to block LFA-1 binding to immobilized ICAM-1, was quantitated using a solid-phase ELISA.
(§2) Typically, fusion protein consisting of the entire extracellular domain of human ICAM-1 and the Fc domain of human IgG (5dICAM-Ig) was coated onto 96-well microtiter plates (0.15 μg in 100 μL PBS) overnight at 4° C. The plates were then blocked with 150 μL of 1% BSA/1 mM MnCl2/0.14 M NaCl/20 mM HEPES, pH 7.2 for 1 h at 37° C. and washed 3 times (150 μL each) with Wash Buffer (50 mM Tris, pH 7.4/100 mM NaCl/1 mM MnCl2/0.05% Tween 20). Stock solutions (100 μM in 100% DMSO) of test compounds were diluted 50 fold with 150 μL of Binding Buffer (0.05% BSA/0.05% Tween 20/1 mM MnCl2/0.14 M NaCl/20 mM HEPES, pH 7.2) plus 10% DMSO. […] Fifty μL per well of each dilution was added to the ICAM-1 coated plates, followed by 50 μL per well of membrane-bound LFA-1 (280 ng/mL in Binding Buffer) derived from transfected 293 cells. The plates were shaken vigorously for 1 min (room temperature) and gently for 2 h (37° C.). After incubation, the plates were washed 3 times (150 μL each) with Wash Buffer. Mouse anti-human integrin β2 monoclonal antibody was added (100 μL/well, 1 μg/mL in Binding Buffer) and allowed to incubate for 1 h (37° C.) with gentle agitation. The plates were then washed 3 times with Wash Buffer. HRP-conjugated goat anti-mouse IgG (100 μL/well, 1:1500 dilution in Binding Buffer) was added to each well, followed by incubation for 1 h (37° C.), and concluded by three washes (150 μL each) with Wash Buffer. TMB solution (100 μL per well) was added for color development (10 min). The reaction was stopped by the addition of 100 μL of 1 M H3PO4 to each well. The plates were then read at 450 nm. The inhibitory activities of test compounds were determined by the IC50s.
as §2, with “LFA-1/ICAM-1 antagonist activity, defined as the ability to block LFA-1 binding to immobilized ICAM-1, was quantitated using a solid-phase ELISA. Typically,” for “Typically,”, “(0.05 %” for “(0.05%”, “nm.” for “nm. The inhibitory activities of test compounds were determined by the IC50s.”

[3] = read-out: Mac-1/ICAM-1 Protein-Protein Assay IC50
[4] = read-out: LFA-1/ICAM-1 Protein-Protein Assay IC50

T1 sequence (P05107 23-769, other chains not shown): as the sequence (P05107 23-769) above

Compound	pIC50 ([1]; read-out: Mac-1/ICAM IC50)	pIC50 ([2]; read-out: LFA-1/ICAM IC50)	pIC50 [1, 3]	pIC50 [2, 4]
COc1cccc(C(=O)NC[C@H](NC(=O)c2ccc(C(=O)NCc3cccc(O)c3)cc2Cl)C(=O)O)c1 [Compound A, N-[2-chloro-4-[[[(3-hydroxyphenyl)methyl]amino]carbonyl]benzoyl]-3-(3-methoxybenzoyl)amino-L-alanine]	7.36	8.92	–	–
O=C(NCc1cccc(O)c1)c1ccc(C(=O)N[C@@H](CNC(=O)c2ccccc2)C(=O)O)c(Cl)c1 [Compound B, 3-benzoylamino-N-[2-chloro-4-[[[(3-hydroxyphenyl)methyl]amino]carbonyl]benzoyl]-L-alanine]	7.51	9.05	–	–
O=C(NCc1cccc(O)c1)c1ccc(C(=O)N[C@@H](CNC(=O)c2cc([N+](=O)[O-])[nH]n2)C(=O)O)c(Cl)c1 [Compound C, N-[2-chloro-4-[[[(3-hydroxyphenyl)methyl]amino]carbonyl]benzoyl]-3-(5-nitropyrazole-3-carbonyl)amino-L-alanine]	6.99	8.19	–	–
O=C(NCc1cccc(O)c1)c1ccc(C(=O)N[C@@H](CNC(=O)c2cccs2)C(=O)O)c(Cl)c1 [Compound D, N-[2-chloro-4-[[[(3-hydroxyphenyl)methyl]amino]carbonyl]benzoyl]-3-(thiophene-2-carbonyl)amino-L-alanine]	8.19	9.30	–	–
COc1cc(C(=O)NC[C@H](NC(=O)c2ccc(C(=O)NCc3cccc(O)c3)cc2Cl)C(=O)O)nc2ccccc12 [Compound E, N-[2-chloro-4-[[[(3-hydroxyphenyl)methyl]amino]carbonyl]benzoyl]-3-(4-methoxyquinoline-2-carbonyl)amino-L-alanine]	6.28	7.82	–	–
O=C(NC[C@H](NC(=O)c1c(Cl)cccc1Cl)C(=O)O)c1ccc(Br)s1 [Compound F, 3-(5-bromothiophene-2-carbonyl)amino-N-(2,6-dichlorobenzoyl)-L-alanine]	7.09	8.19	–	–
O=C(NCc1cccc2[nH]ccc12)c1ccc(C(=O)N[C@@H](CNC(=O)c2cccs2)C(=O)O)c(Cl)c1 [Compound G, N-[2-chloro-4-[[(1H-indol-4-ylmethyl)amino]carbonyl]benzoyl]-3-(thiophene-2-carbonyl)amino-L-alanine]	7.65	8.89	–	–
O=C(CCc1cccc(O)c1)c1ccc(C(=O)N[C@@H](CNC(=O)c2cccs2)C(=O)O)c(Cl)c1 [Compound H, N-[2-chloro-4-[1-oxo-3-(3-hydroxyphenyl)propyl]benzoyl]-3-(thiophene-2-carbonyl)amino-L-alanine]	7.36	8.85	–	–
O=C(NC[C@H](NC(=O)c1ccc(-n2nnnc2NCc2cccc(O)c2)cc1Cl)C(=O)O)c1cccs1 [Compound I, N-[2-chloro-4-[5-[[(3-hydroxyphenyl)methyl]amino]tetrazol-1-yl]benzoyl]-3-(thiophene-2-carbonyl)amino-L-alanine]	7.12	8.59	–	–
O=C(NCc1cccc2[nH]ccc12)c1ccc(C(=O)N[C@@H](CNCc2ccccc2)C(=O)O)c(Cl)c1 [Compound J, 3-(phenylmethyl)amino-N-[2-chloro-4-[[(1H-indol-4-ylmethyl)amino]carbonyl]benzoyl]-L-alanine]	5.85	7.92	–	–
O=C(NCc1cccc(O)c1)c1ccc(C(=O)N[C@@H](CNC(=O)c2ccccn2)C(=O)O)c(Cl)c1 [Example 162]	–	–	6.98	9.00
O=C(NCc1cccc(O)c1)c1ccc(C(=O)N[C@@H](CNC(=O)c2cccnc2Cl)C(=O)O)c(Cl)c1 [Example 166]	–	–	7.17	8.52
O=C(NCc1cccc(O)c1)c1ccc(C(=O)N[C@@H](CNC(=O)c2ccc(Cl)nc2)C(=O)O)c(Cl)c1 [Example 167]	–	–	7.41	8.66
COc1ccc(C(=O)NC[C@H](NC(=O)c2ccc(C(=O)NCc3cccc(O)c3)cc2Cl)C(=O)O)c(OC)n1 [Example 168]	–	–	6.65	7.92
O=C(NCc1cccc(O)c1)c1ccc(C(=O)N[C@@H](CNC(=O)c2nccnc2C(=O)Nc2ccc(Cl)cn2)C(=O)O)c(Cl)c1 [Example 171]	–	–	6.87	9.00
O=C(NCc1cccc(O)c1)c1ccc(C(=O)N[C@@H](CNC(=O)c2c[nH]c(=O)[nH]c2=O)C(=O)O)c(Cl)c1 [Example 172]	–	–	6.27	8.15
